pIC50: −log10 of the molar value.

In the assay the target is USP7 (Homo sapiens, UniProt Q93009). Nature of the assay: USP7 inhibitory potency (Table 1). The format is biochemical.
Chain of USP7 (Q93009 whole entry): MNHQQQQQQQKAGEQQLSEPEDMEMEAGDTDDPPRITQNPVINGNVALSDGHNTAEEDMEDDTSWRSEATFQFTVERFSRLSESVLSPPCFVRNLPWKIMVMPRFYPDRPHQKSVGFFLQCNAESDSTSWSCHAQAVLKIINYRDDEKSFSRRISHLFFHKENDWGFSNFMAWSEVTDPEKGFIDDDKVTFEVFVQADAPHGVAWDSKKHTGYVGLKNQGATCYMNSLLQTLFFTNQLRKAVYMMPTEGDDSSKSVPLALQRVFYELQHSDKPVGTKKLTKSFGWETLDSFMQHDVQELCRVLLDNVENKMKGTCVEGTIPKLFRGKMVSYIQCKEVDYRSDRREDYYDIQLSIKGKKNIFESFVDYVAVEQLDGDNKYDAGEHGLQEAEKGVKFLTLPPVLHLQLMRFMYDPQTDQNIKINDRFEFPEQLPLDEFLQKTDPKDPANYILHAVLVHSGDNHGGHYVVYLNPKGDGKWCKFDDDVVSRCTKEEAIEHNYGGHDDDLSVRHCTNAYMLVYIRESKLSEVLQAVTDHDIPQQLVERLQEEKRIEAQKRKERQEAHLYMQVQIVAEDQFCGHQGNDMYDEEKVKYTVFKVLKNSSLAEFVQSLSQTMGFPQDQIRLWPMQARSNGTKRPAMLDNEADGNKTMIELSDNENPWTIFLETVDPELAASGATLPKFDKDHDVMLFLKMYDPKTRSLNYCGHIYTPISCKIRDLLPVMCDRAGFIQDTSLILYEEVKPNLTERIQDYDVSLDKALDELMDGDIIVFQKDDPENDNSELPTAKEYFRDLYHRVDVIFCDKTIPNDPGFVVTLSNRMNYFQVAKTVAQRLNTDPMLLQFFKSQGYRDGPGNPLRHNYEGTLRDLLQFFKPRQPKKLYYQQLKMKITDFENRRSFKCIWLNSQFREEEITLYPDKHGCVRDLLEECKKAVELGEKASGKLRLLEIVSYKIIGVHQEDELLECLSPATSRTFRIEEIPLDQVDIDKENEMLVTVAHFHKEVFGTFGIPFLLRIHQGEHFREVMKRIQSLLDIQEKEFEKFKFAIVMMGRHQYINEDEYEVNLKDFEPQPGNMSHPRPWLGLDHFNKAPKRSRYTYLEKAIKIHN
For `O=C1CCCN1Cc1cc2nccc(-c3cc(Cl)cc4c3O[C@@H](C(=O)N3CCNCC3)C4)c2s1` [(R)-1-((7-(5-chloro-2-(piperazine-1-carbonyl)-2,3-dihydrobenzofuran-7-yl)thieno[3,2-b]pyridin-2-yl)methyl)pyrrolidin-2-one], the pIC50 – broadly, the IC50 on a negative log10 scale, so that one unit is a factor of ten – was greater than 6.00. The value for `Clc1cc2c(c(-c3ccnc4ccccc34)c1)O[C@@H](c1onc3c1CNCC3)C2` [(R)-3-(5-chloro-7-(quinolin-4-yl)-2,3-dihydrobenzofuran-2-yl)-4,5,6,7-tetrahydroisoxazolo[4,3-c]pyridine] was greater than 6.00; that for `OCC1(CO)Cc2nccc(-c3cc(Cl)cc4c3O[C@@H](c3onc5c3CNCC5)C4)c2C1` [(R)-(4-(5-chloro-2-(4,5,6,7-tetrahydroisoxazolo[4,3-c]pyridin-3-yl)-2,3-dihydrobenzofuran-7-yl)-6,7-dihydro-5H-cyclopenta[b]pyridine-6,6-diyl)dimethanol] was 5.00 to 6.00.

For the molecule `O=C(C1Cc2cc(Cl)cc(-c3ccnc4[nH]c(C5CC5)cc34)c2O1)N1CCNCC1` (centres unmarked) [(5-chloro-7-(2-cyclopropyl-1H-pyrrolo[2,3-b]pyridin-4-yl)-2,3-dihydrobenzofuran-2-yl)(piperazin-1-yl)methanone], the negative-log IC50 (pIC50) is 4.52 to 5.00.

For `O=C([C@H]1Cc2cc(Cl)cc(-c3ccnc4cc(CO)sc34)c2O1)N1CCn2cnnc2C1` [(R)-(5-chloro-7-(2-(hydroxymethyl)thieno[3,2-b]pyridin-7-yl)-2,3-dihydrobenzofuran-2-yl)(5,6-dihydro-[1,2,4]triazolo[4,3-a]pyrazin-7(8H)-yl)methanone], the negative logarithm of the IC50 (pIC50) is 5.00 to 6.00.

Take `O=C(C1Cc2cc(Cl)cc(-c3ccnc4cc(CO)ccc34)c2O1)N1CCNCC1` (centres unmarked) [(5-chloro-7-(7-(hydroxymethyl)quinolin-4-yl)-2,3-dihydrobenzofuran-2-yl)(piperazin-1-yl)methanone]: the pIC50 is 5.00 to 6.00.

`NCc1cc(-c2cc(Cl)cc3c2O[C@@H](c2onc4c2CNCC4)C3)c2ccccc2n1` [(R)-(4-(5-chloro-2-(4,5,6,7-tetrahydroisoxazolo[4,3-c]pyridin-3-yl)-2,3-dihydrobenzofuran-7-yl)quinolin-2-yl)methanamine] had a pIC50 of 5.00 to 6.00. With `O=C(C1Cc2cc(Cl)cc(-c3ccnc(Cn4cnc5ccccc5c4=O)c3)c2O1)N1CCNCC1` (centres unmarked) [3-((4-(5-chloro-2-(piperazine-1-carbonyl)-2,3-dihydrobenzofuran-7-yl)pyridin-2-yl)methyl)quinazolin-4(3H)-one], the negative-log IC50 (pIC50) is 4.52 to 5.00.

Regarding `CN(C)C(=O)CCc1cc2nccc(-c3cc(Cl)cc4c3O[C@@H](C(=O)N3CCNCC3)C4)c2s1` [(R)-3-(7-(5-chloro-2-(piperazine-1-carbonyl)-2,3-dihydrobenzofuran-7-yl)thieno[3,2-b]pyridin-2-yl)-N,N-dimethylpropanamide], the pIC50 was 5.00 to 6.00.

As for `COc1ccc2nccc(-c3cc(Cl)cc4c3O[C@@H](c3onc5c3CNCC5)C4)c2c1` [(R)-3-(5-chloro-7-(6-methoxyquinolin-4-yl)-2,3-dihydrobenzofuran-2-yl)-4,5,6,7-tetrahydroisoxazolo[4,3-c]pyridine], the pIC50 was 4.52 to 5.00. The value for `NC(=O)C1Cc2nccc(-c3cc(Cl)cc4c3O[C@@H](c3onc5c3CNCC5)C4)c2C1` (stereo partly drawn) [4-((R)-5-chloro-2-(4,5,6,7-tetrahydroisoxazolo[4,3-c]pyridin-3-yl)-2,3-dihydrobenzofuran-7-yl)-6,7-dihydro-5H-cyclopenta[b]pyridine-6-carboxamide] was 5.00 to 6.00; that for `CCC(O)c1cc2nccc(-c3cc(Cl)cc4c3O[C@@H](c3[nH]nc5c3CNCC5)C4)c2s1` (stereo partly drawn) [1-(7-((R)-5-chloro-2-(4,5,6,7-tetrahydro-2H-pyrazolo[4,3-c]pyridin-3-yl)-2,3-dihydrobenzofuran-7-yl)thieno[3,2-b]pyridin-2-yl)propan-1-ol] was greater than 6.00. In turn, `O=C(C1Cc2cc(Cl)cc(-c3ccnc4[nH]ccc34)c2O1)N1CCN([C@H]2CC[C@@H](c3ccccc3)CC2)CC1` (some centres unmarked) [(5-chloro-7-(1H-pyrrolo[2,3-b]pyridin-4-yl)-2,3-dihydrobenzofuran-2-yl)(4-((1s,4s)-4-phenylcyclohexyl)piperazin-1-yl)methanone] gave a pIC50 of 5.00 to 6.00. In turn, `O=C([C@H]1Cc2cc(Cl)cc(-c3ccnc4cc(CCNS(=O)(=O)c5ccccc5)sc34)c2O1)N1CCNCC1` [(R)-N-(2-(7-(5-chloro-2-(piperazine-1-carbonyl)-2,3-dihydrobenzofuran-7-yl)thieno[3,2-b]pyridin-2-yl)ethyl)benzenesulfonamide] had a pIC50 greater than 6.00.

`CC(O)c1ccc2c(-c3cc(Cl)cc4c3O[C@@H](C(=O)N3CCNCC3)C4)ccnc2c1` (stereo partly drawn) [((2R)-5-chloro-7-(7-(1-hydroxyethyl)quinolin-4-yl)-2,3-dihydrobenzofuran-2-yl)(piperazin-1-yl)methanone] showed a pIC50 greater than 6.00. `CCC(O)(CC)C1Cc2nccc(-c3cc(Cl)cc4c3O[C@@H](c3onc5c3CNCC5)C4)c2C1` (stereo partly drawn) [3-(4-((R)-5-chloro-2-(4,5,6,7-tetrahydroisoxazolo[4,3-c]pyridin-3-yl)-2,3-dihydrobenzofuran-7-yl)-6,7-dihydro-5H-cyclopenta[b]pyridin-6-yl)pentan-3-ol] showed a pIC50 of 5.00 to 6.00. On to `C[C@H]1CCN(Cc2cc3nccc(-c4cc(Cl)cc5c4O[C@@H](C(=O)N4CCNCC4)C5)c3s2)C1=O` [(S)-1-((7-((R)-5-chloro-2-(piperazine-1-carbonyl)-2,3-dihydrobenzofuran-7-yl)thieno[3,2-b]pyridin-2-yl)methyl)-3-methylpyrrolidin-2-one], for which the pIC50 is greater than 6.00. As to `O=C(C1Cc2cc(Cl)cc(-c3ccnc4[nH]ccc34)c2O1)N1CCC2(CC1)CNC2` (centres unmarked) [(5-chloro-7-(1H-pyrrolo[2,3-b]pyridin-4-yl)-2,3-dihydrobenzofuran-2-yl)(2,7-diazaspiro[3.5]nonan-7-yl)methanone], the pIC50 is 5.00 to 6.00. The value for `O=C(C1Cc2cc(Cl)cc(-c3ccnc4[nH]ccc34)c2O1)N1CCC(c2ccncc2)CC1` (centres unmarked) [(5-chloro-7-(1H-pyrrolo[2,3-b]pyridin-4-yl)-2,3-dihydrobenzofuran-2-yl)(4-(pyridin-4-yl)piperidin-1-yl)methanone] was 5.00 to 6.00; that for `CN1CCc2noc([C@H]3Cc4cc(Cl)cc(-c5ccnc6cc(CO)sc56)c4O3)c2C1` [(R)-(7-(5-chloro-2-(5-methyl-4,5,6,7-tetrahydroisoxazolo[4,3-c]pyridin-3-yl)-2,3-dihydrobenzofuran-7-yl)thieno[3,2-b]pyridin-2-yl)methanol] was greater than 6.00. The value for `O=C(C1Cc2cc(Cl)c(F)c(-c3ccnc4[nH]ccc34)c2O1)N1CCNCC1` (centres unmarked) was 4.52 to 5.00; that for `O=C(C1Cc2cc(Cl)cc(-c3ccnc4[nH]ccc34)c2O1)N1CCN(c2ccccn2)CC1` (centres unmarked) [(5-Chloro-7-(1H-pyrrolo[2,3-b]pyridin-4-yl)-2,3-dihydrobenzofuran-2-yl)(4-(pyridin-2-yl)piperazin-1-yl)methanone] was 4.52 to 5.00; that for `O=C([C@H]1Cc2cc(Cl)cc(-c3ccnc4cc(CCN5C(=O)CCC5=O)sc34)c2O1)N1CCNCC1` [(R)-1-(2-(7-(5-chloro-2-(piperazine-1-carbonyl)-2,3-dihydrobenzofuran-7-yl)thieno[3,2-b]pyridin-2-yl)ethyl)pyrrolidine-2,5-dione] was greater than 6.00. Consider `O=C1CCC(=O)N1Cc1cc2nccc(-c3cc(Cl)cc4c3O[C@@H](c3onc5c3CNCC5)C4)c2s1` [(R)-1-((7-(5-chloro-2-(4,5,6,7-tetrahydroisoxazolo[4,3-c]pyridin-3-yl)-2,3-dihydrobenzofuran-7-yl)thieno[3,2-b]pyridin-2-yl)methyl)pyrrolidine-2,5-dione], for which the pIC50 was greater than 6.00.

`Cn1ccc(=O)n(Cc2cc3nccc(-c4cc(Cl)cc5c4O[C@@H](C(=O)N4CCNCC4)C5)c3s2)c1=O` [(R)-3-((7-(5-chloro-2-(piperazine-1-carbonyl)-2,3-dihydrobenzofuran-7-yl)thieno[3,2-b]pyridin-2-yl)methyl)-1-methylpyrimidine-2,4(1H,3H)-dione] gave a negative-log IC50 (pIC50) greater than 6.00. Molecule `O=C([C@H]1CCc2cc(Cl)cc(-c3ccnc4cc(CO)sc34)c2O1)N1CCNCC1` [(R)-(6-chloro-8-(2-(hydroxymethyl)thieno[3,2-b]pyridin-7-yl)chroman-2-yl)(piperazin-1-yl)methanone] had a pIC50 greater than 6.00.

In the case of `CCC(O)C1Cc2nccc(-c3cc(Cl)cc4c3O[C@@H](C(=O)N3CCNCC3)C4)c2C1` (stereo partly drawn) [((2R)-5-chloro-7-(6-(1-hydroxypropyl)-6,7-dihydro-5H-cyclopenta[b]pyridin-4-yl)-2,3-dihydrobenzofuran-2-yl)(piperazin-1-yl)methanone], the pIC50 is greater than 6.00.

Consider `O=C([C@H]1Cc2cc(Cl)cc(-c3ccnc4ccsc34)c2O1)N1CCC(N2CCCCC2)CC1` [(R)-[1,4′-bipiperidin]-1′-yl(5-chloro-7-(thieno[3,2-b]pyridin-7-yl)-2,3-dihydrobenzofuran-2-yl)methanone], for which the negative-log IC50 (pIC50) was 5.00 to 6.00. The same measure for `O=C(C1Cc2cc(Cl)cc(-c3ccnc4[nH]c(Cc5ccccc5)cc34)c2O1)N1CCNCC1` (centres unmarked) [(7-(2-benzyl-1H-pyrrolo[2,3-b]pyridin-4-yl)-5-chloro-2,3-dihydrobenzofuran-2-yl)(piperazin-1-yl)methanone]: 5.00 to 6.00; for `O=C([C@H]1Cc2cc(Cl)cc(-c3ccnc4cc(C(O)CCl)sc34)c2O1)N1CCNCC1` (stereo partly drawn) [((2R)-5-chloro-7-(2-(2-chloro-1-hydroxyethyl)thieno[3,2-b]pyridin-7-yl)-2,3-dihydrobenzofuran-2-yl)(piperazin-1-yl)methanone]: greater than 6.00. In the case of `CCC(O)c1cc2ncnc(-c3cc(Cl)cc4c3O[C@@H](c3c5c(nn3C)CCC(N(C)C)C5)C4)c2s1` (stereo partly drawn) [1-(4-((2R)-5-chloro-2-(5-(dimethylamino)-2-methyl-4,5,6,7-tetrahydro-2H-indazol-3-yl)-2,3-dihydrobenzofuran-7-yl)thieno[3,2-d]pyrimidin-6-yl)propan-1-ol], the pIC50 was 5.00 to 6.00. The value for `CCC(O)c1cc2ncnc(-c3cc(Cl)cc4c3O[C@@H](c3onc5c3CNCC5)C4)c2s1` (stereo partly drawn) [drawing 1596, 1-(4-((R)-5-chloro-2-(4,5,6,7-tetrahydroisoxazolo[4,3-c]pyridin-3-yl)-2,3-dihydrobenzofuran-7-yl)thieno[3,2-d]pyrimidin-6-yl)propan-1-ol] was greater than 6.00.

The values above are taken from patent US20210317134A1, “UBIQUITIN-SPECIFIC-PROCESSING PROTEASE 7 (USP7) MODULATORS AND USES THEREOF” (RAPT THERAPEUTICS, INC., priority 2019, published 2021).
